Consider one compound from patent EP4813403A1, “USE OF GLP-1R/GIPR DOUBLE-TARGET AGONIST IN PREPARING ANIMAL DRUG” (Hangzhou Zhongmeihuadong Pharmaceutical Co., Ltd., priority 2023, dated 2025).

Data set [1] is described as follows: Repeated administration on male rats for 2 weeks (toxicity, toxicokinetics). The format is in vivo, SD male rats. The protocol:
77 SD male rats (SPF grade) were selected and randomly divided into 10 groups based on body weight. Group 1 was the vehicle control group, including 5 animals. […] Group 5 to Group 7 were the groups administrated with the test substance 1; and Group 8 to Group 10 were the groups administrated with the test substance 2, each group including 8 animals, wherein 5 animals for primary test, and 3 animals for toxicokinetics test, and the administration dose was 1, 3 and 10 mg/kg respectively. Each of the above groups was continuously administered twice a week for 2 weeks (administrating at Day 1, Day 5, Day 8, Day 12 and Day 15).
During the experiment, the cage condition monitoring, detailed clinical observations, determination of the food consumption, determination of body weight, measurement of the blood biochemical and hematology indicator, investigation of the gross anatomy, weighing of the organ, studying on toxicokinetic were performed on all the groups of the animals.
Original data during each time period was tabulated. The average values and standard deviations and/or group change were calculated for each assay endpoint based on the group and sex. For each endpoint, the administrated group will be compared with the control group in the following aspect. A logarithmic conversion was performed to the endpoint data as desired prior to the start of the specific analyses.

Data set [2] in a line: Pharmacokinetics following single administration in SD rats. Particulars: male, Sprague-Dawley, rat, in vivo, sc, SD rats, subcutaneous injection, 50 nmol/kg. The procedure, abridged: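 Male SD rats (230-268 g, n=3) dosed once at 50.0 nmol/kg s.c. or 25.0 nmol/kg i.v. Plasma proteins precipitated with acetonitrile containing internal standards; drug levels quantified by LC-MS/MS.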

Another data set concerns monkey GIPR. Put plainly: Agonistic activity on GIPR of different species (LANCE Ultra cAMP assay): monkey. Particulars: ratio of EC50 value of other species to human EC50 value. The format is cell-based. The method, then: CHO-K1 cells were seeded in a 6-well plate at 0.6×10^6 cells/well and incubated overnight in an incubator at a temperature of 37 °C and a carbon dioxide concentration of 5%. The next day, CHO-K1 cell media were replaced. Then two tubes A and B were prepared for each plasmid. 100 µL Opti-MEM was added to tube A, then 4 µL Lipofectamine™ 3000 was added and mixed uniformly. 100 µL Opti-MEM was firstly added to tube B, then 2 µg of one of the plasmids (human GIPR-pcDNA5 (+) plasmid, dog GIPR-pcDNA5 (+) plasmid, mouse GIPR-pcDNA5 (+) plasmid, rat GIPR-pcDNA5 (+) plasmid, rabbit GIPR-pcDNA5 (+) plasmid, monkey GIPR-pcDNA5 (+) plasmid) was added and mixed uniformly, and 4 µL P3000™ was added to tube B and mixed uniformly (the ratio of plasmid to transfection reagent was 1 µg: 2 µL). […]
18-20 hours after transfection, human GIPR-CHO, dog GIPR-CHO, mouse GIPR-CHO, rat GIPR-CHO, rabbit GIPR-CHO, and monkey GIPR-CHO cells were resuspended in 1×Casein Stimulation Buffer (HBSS, 5 mM HEPES, 0.5 mM IBMX, 0.1% casein, pH7.4), and seeded into a 384-well cell culture plate at 9 µL/well (cell numbers being 1000, 2000, 2000, 2000, 2000, 2000 cells/well, respectively). […] The readings at 665 nm and 620 nm were determined with a 330 nm excitation light on a microplate reader. The 665 nm/620 nm reading ratio was calculated. […]

In general, AUC(0-inf) refers to the area under the concentration-time curve extrapolated to infinity. As usually defined, the AUC(0-t) is the area under the concentration-time curve up to a stated or last time point. The term Cmax denotes the maximum level reached in the sampled fluid or tissue. Broadly, the Tmax is the time at which the peak concentration occurs. For `CC[C@H](C)[C@H](NC(=O)C(C)(C)NC(=O)[C@H](Cc1ccc(O)cc1)NC(=O)[C@H](CC(=O)O)NC(=O)[C@H](CO)NC(=O)[C@@H](NC(=O)C(C)(Cc1ccccc1)NC(=O)[C@@H](NC(=O)CNC(=O)[C@H](CCC(=O)O)NC(=O)C(C)(C)NC(=O)[C@@H](N)Cc1ccc(O)cc1)[C@@H](C)O)[C@@H](C)O)C(=O)NC(C)(C)C(=O)N[C@@H](CC(C)C)C(=O)N[C@@H](CC(=O)O)C(=O)N[C@@H](CCCCN)C(=O)N[C@@H](CCC(N)=O)C(=O)N[C@@H](C)C(=O)N[C@@H](CCC(N)=O)C(=O)N[C@@H](C)C(=O)N[C@@H](CCC(=O)O)C(=O)N[C@@H](Cc1ccccc1)C(=O)N[C@H](C(=O)N[C@@H](CCCCNC(=O)COCCOCCNC(=O)COCCOCCNC(=O)COCCOCCNC(=O)CC[C@H](NC(=O)CCCCCCCCCCCCCCCCCCCCC(=O)O)C(=O)O)C(=O)N[C@@H](Cc1c[nH]c2ccccc12)C(=O)N[C@@H](CC(C)C)C(=O)N[C@@H](CC(C)C)C(=O)N[C@@H](CCCCN)C(=O)NCC(=O)NCC(=O)N1CCC[C@H]1C(=O)N[C@@H](CO)C(=O)N[C@@H](CO)C(=O)NCC(=O)N[C@@H](C)C(=O)N1CCC[C@H]1C(=O)N1CCC[C@H]1C(=O)N1CCC[C@H]1C(=O)N[C@@H](CO)C(=O)N[C@@H](CCCCN)C(N)=O)C(C)C` (stereo partly shown) [Compound P016], the MTD in data set [1] (MTD for 2 weeks, rats) is given as 1924 nmol/kg (MTD for 2 weeks). The “dose at which decrease of the body weight was observed after the first administration” value in data set [1] (SD male rats) was at least 1 mg/kg. Further, in data set [1] (SD male rats, 1, 3, 10 mg/kg twice a week for 2 weeks), the “Gross Anatomy” value is “no abnormalities were found”. Further, in data set [1] (SD male rats, administered twice a week for 2 weeks), the “accumulation (toxicokinetic)” value is on record as “no substantial accumulation”. The compound also showed an MTD at 336 h in data set [1] (Sprague-Dawley, rat, in vivo, SD male rats, administered twice a week for 2 weeks) of at least 10 mg/kg. The “Safety Window (based on dosage)” value in data set [1] (rat 2-week MTD versus efficacy dose) was 1282. In addition, the “safety window (based on exposure), times of that of Tirzepatide” value in data set [1] (rat, in vivo) is reported as “more than 7 times”. For the same compound, in data set [2], the AUC(0-inf) is 5.07 ± 0.262 µM·h, the AUC(0-t) came out at 4.84 ± 0.27 µM·h and the Cmax was 119 ± 7 nM. For the same compound, in data set [2] (read-out: T1/2 (converted)), the half-life is 14.1 ± 0.153 h. The Tmax in data set [2] (read-out: Tmax) was 24 h. Moreover, the “GIPR EC50 ratio” value in the data set on monkey GIPR is listed as 5.77.
